# According to PubChem BioAssay (NCI):
#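 At the GI50, growth is halved. TGI is the concentration that stops growth completely.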
# Key:
# Test in all cases: NCI tumour cell line growth inhibition, 384-well format
# PC-3 prostate = system: PC-3 prostate
# RXF 393 renal = system: RXF 393 renal
# OVCAR-8 ovarian = system: OVCAR-8 ovarian
# CCRF-CEM leukemia = system: CCRF-CEM leukemia
# OVCAR-4 ovarian = system: OVCAR-4 ovarian
# NCI-H226 lung = system: NCI-H226 lung
# SK-MEL-28 melanoma = system: SK-MEL-28 melanoma
# NCI-H460 NSCLC = system: NCI-H460 NSCLC
# A549 NSCLC = system: A549 NSCLC
# HCT-15 colon = system: HCT-15 colon
# U251 glioblastoma = system: U251 glioblastoma
# DU-145 prostate = system: DU-145 prostate
# HOP-92 NSCLC = system: HOP-92 NSCLC
# HCC-2998 colon = system: HCC-2998 colon
# COLO 205 colon = system: COLO 205 colon
# MALME-3M melanoma = system: MALME-3M melanoma
# SK-MEL-2 melanoma = system: SK-MEL-2 melanoma
# SNB-75 CNS = system: SNB-75 CNS
# MOLT-4 leukemia = system: MOLT-4 leukemia
# NCI-H522 lung = system: NCI-H522 lung
# UACC-257 melanoma = system: UACC-257 melanoma
# NCI-H23 lung = system: NCI-H23 lung
# T-47D breast = system: T-47D breast
# A498 renal = system: A498 renal
# ACHN renal = system: ACHN renal
# HCT-116 colon = system: HCT-116 colon
# K-562 leukemia = system: K-562 leukemia
# IGROV1 ovarian = system: IGROV1 ovarian
# SF-268 CNS = system: SF-268 CNS
# SF-539 CNS = system: SF-539 CNS
# EKVX NSCLC = system: EKVX NSCLC
# HT29 colon = system: HT29 colon
# HS 578T breast = system: HS 578T breast
# SW-620 colon = system: SW-620 colon
# LOX IMVI melanoma = system: LOX IMVI melanoma
# OVCAR-3 ovarian = system: OVCAR-3 ovarian
# CAKI-1 renal = system: CAKI-1 renal
# NCI-H322M lung = system: NCI-H322M lung
# OVCAR-5 ovarian = system: OVCAR-5 ovarian
# SK-OV-3 ovarian = system: SK-OV-3 ovarian
# HL-60(TB) leukemia = system: HL-60(TB) leukemia
# RPMI-8226 leukemia = system: RPMI-8226 leukemia
# SN12C renal = system: SN12C renal
# SF-295 CNS = system: SF-295 CNS
# 786-0 renal = system: 786-0 renal
# NCI/ADR-RES ovarian = system: NCI/ADR-RES ovarian
# UACC-62 melanoma = system: UACC-62 melanoma
# HOP-62 NSCLC = system: HOP-62 NSCLC
# SNB-19 CNS = system: SNB-19 CNS
# KM12 colon = system: KM12 colon
# UO-31 renal = system: UO-31 renal
# MDA-MB-231 breast = system: MDA-MB-231 breast
# M14 melanoma = system: M14 melanoma
# TK-10 renal = system: TK-10 renal
# SR leukemia = system: SR leukemia
# MCF7 breast = system: MCF7 breast
# SK-MEL-5 melanoma = system: SK-MEL-5 melanoma
# MDA-MB-468 breast = system: MDA-MB-468 breast
structure (smiles),measurement,setting,value
COc1cc2ncnc3c2cc1OCCCCCN(C)Cc1ccc(Br)cc1N3,GI50,PC-3 prostate,4.02 µM
same,TGI,PC-3 prostate,> 100 µM
same,GI50,RXF 393 renal,3.22 µM
same,TGI,RXF 393 renal,> 100 µM
same,GI50,OVCAR-8 ovarian,3.02 µM
same,TGI,OVCAR-8 ovarian,> 100 µM
same,GI50,CCRF-CEM leukemia,4 µM
same,TGI,CCRF-CEM leukemia,> 100 µM
same,GI50,OVCAR-4 ovarian,2.39 µM
same,TGI,OVCAR-4 ovarian,> 100 µM
same,GI50,NCI-H226 lung,5.87 µM
same,TGI,NCI-H226 lung,> 100 µM
same,GI50,SK-MEL-28 melanoma,> 27.3 µM
same,TGI,SK-MEL-28 melanoma,> 100 µM
same,GI50,NCI-H460 NSCLC,3.37 µM
same,TGI,NCI-H460 NSCLC,> 100 µM
same,GI50,A549 NSCLC,2.64 µM
same,TGI,A549 NSCLC,> 100 µM
same,GI50,HCT-15 colon,2.86 µM
same,TGI,HCT-15 colon,> 100 µM
same,GI50,U251 glioblastoma,5.7 µM
same,TGI,U251 glioblastoma,> 100 µM
same,GI50,DU-145 prostate,1.52 µM
same,TGI,DU-145 prostate,> 100 µM
same,GI50,HOP-92 NSCLC,3.32 µM
same,TGI,HOP-92 NSCLC,> 100 µM
same,GI50,HCC-2998 colon,5.37 µM
same,TGI,HCC-2998 colon,> 100 µM
same,GI50,COLO 205 colon,> 21.1 µM
same,TGI,COLO 205 colon,> 100 µM
same,GI50,MALME-3M melanoma,3.33 µM
same,TGI,MALME-3M melanoma,> 100 µM
same,GI50,SK-MEL-2 melanoma,2.22 µM
same,TGI,SK-MEL-2 melanoma,> 22 µM
same,GI50,SNB-75 CNS,4.58 µM
same,TGI,SNB-75 CNS,> 100 µM
same,GI50,MOLT-4 leukemia,2.15 µM
same,GI50,NCI-H522 lung,0.287 µM
same,TGI,NCI-H522 lung,2.97 µM
same,GI50,UACC-257 melanoma,> 100 µM
same,TGI,UACC-257 melanoma,> 100 µM
same,GI50,NCI-H23 lung,4.73 µM
same,TGI,NCI-H23 lung,> 100 µM
same,GI50,T-47D breast,0.798 µM
same,TGI,T-47D breast,> 20.7 µM
same,GI50,A498 renal,0.383 µM
same,TGI,A498 renal,> 100 µM
same,GI50,ACHN renal,0.263 µM
same,TGI,ACHN renal,> 19.9 µM
same,GI50,HCT-116 colon,3.8 µM
same,TGI,HCT-116 colon,> 100 µM
same,GI50,K-562 leukemia,3.88 µM
same,TGI,K-562 leukemia,> 100 µM
same,GI50,IGROV1 ovarian,0.419 µM
same,TGI,IGROV1 ovarian,2.85 µM
same,GI50,SF-268 CNS,> 100 µM
same,TGI,SF-268 CNS,> 100 µM
same,GI50,SF-539 CNS,> 100 µM
same,TGI,SF-539 CNS,> 100 µM
same,GI50,EKVX NSCLC,0.612 µM
same,TGI,EKVX NSCLC,> 100 µM
same,GI50,HT29 colon,> 20.9 µM
same,TGI,HT29 colon,> 100 µM
same,GI50,HS 578T breast,1.84 µM
same,TGI,HS 578T breast,> 100 µM
same,GI50,SW-620 colon,6.27 µM
same,TGI,SW-620 colon,> 100 µM
same,GI50,LOX IMVI melanoma,3.67 µM
same,TGI,LOX IMVI melanoma,> 100 µM
same,GI50,OVCAR-3 ovarian,1.07 µM
same,TGI,OVCAR-3 ovarian,> 100 µM
same,GI50,CAKI-1 renal,1.36 µM
same,TGI,CAKI-1 renal,> 100 µM
same,GI50,NCI-H322M lung,0.191 µM
same,TGI,NCI-H322M lung,1.46 µM
same,GI50,OVCAR-5 ovarian,3.95 µM
same,TGI,OVCAR-5 ovarian,> 100 µM
same,GI50,SK-OV-3 ovarian,0.643 µM
same,TGI,SK-OV-3 ovarian,5.34 µM
same,GI50,HL-60(TB) leukemia,1.66 µM
same,TGI,HL-60(TB) leukemia,3.28 µM
same,GI50,RPMI-8226 leukemia,2.58 µM
same,TGI,RPMI-8226 leukemia,> 20.6 µM
same,GI50,SN12C renal,1.1 µM
same,TGI,SN12C renal,> 100 µM
same,GI50,SF-295 CNS,7.08 µM
same,TGI,SF-295 CNS,> 100 µM
same,GI50,786-0 renal,3.92 µM
same,TGI,786-0 renal,> 100 µM
same,GI50,NCI/ADR-RES ovarian,3.03 µM
same,TGI,NCI/ADR-RES ovarian,> 100 µM
same,GI50,UACC-62 melanoma,2.16 µM
same,TGI,UACC-62 melanoma,> 100 µM
same,GI50,HOP-62 NSCLC,4.74 µM
same,TGI,HOP-62 NSCLC,> 100 µM
same,GI50,SNB-19 CNS,> 100 µM
same,TGI,SNB-19 CNS,> 100 µM
same,GI50,KM12 colon,7.47 µM
same,TGI,KM12 colon,> 100 µM
same,GI50,UO-31 renal,1.45 µM
same,TGI,UO-31 renal,> 100 µM
same,GI50,MDA-MB-231 breast,7.15 µM
same,TGI,MDA-MB-231 breast,> 100 µM
same,GI50,M14 melanoma,3.82 µM
same,TGI,M14 melanoma,> 100 µM
same,GI50,TK-10 renal,0.352 µM
same,TGI,TK-10 renal,> 100 µM
same,GI50,SR leukemia,1.72 µM
same,TGI,SR leukemia,5.17 µM
same,GI50,MCF7 breast,8.25 µM
same,TGI,MCF7 breast,> 100 µM
same,GI50,SK-MEL-5 melanoma,3.32 µM
same,TGI,SK-MEL-5 melanoma,> 100 µM
same,GI50,MDA-MB-468 breast,0.0909 µM
same,TGI,MDA-MB-468 breast,0.356 µM
